What was measured:
Mus musculus = assay: Tested for inhibitory activity after administration of compound at 50 mg/kg perorally using AcOH writhing method; format: functional; settings: route oral
[1] = Tested for acute toxicity after administration of compound at 50 mg/kg intraperitoneally in mice; format: organism-based; set-up: dose 50 mg/kg, route intraperitoneal; settings: mouse, in vivo, ip
Rattus norvegicus [2] = assay: Percent inhibition of carrageenan induced rat paw edema 3 hr after a peroral administration of 20 mg/kg; format: functional; settings: route oral
Rattus norvegicus [3] = assay: Percent inhibition of carrageenan induced rat paw edema 3 hr after a peroral administration of 50 mg/kg; format: functional; settings: route oral
Rattus norvegicus [4] = assay: Percent inhibition of carrageenan induced rat paw edema 3 hr after a peroral administration of 10 mg/kg; format: functional; settings: route oral
Rattus norvegicus [5] = assay: Percent inhibition after administration at 2 mg/kg perorally using carrageenan induced rat paw edema method; format: functional; settings: route oral
Rattus norvegicus [6] = assay: Percent inhibition of carrageenan induced rat paw edema 3 hr after a peroral administration of 0.5 mg/kg; format: functional; settings: route oral

| SMILES | ED50 (Mus musculus) [mg/kg] | LD50 [1] [mg/kg] | inhibition in vivo at 20 mg/kg (Rattus norvegicus [2]) [%] | inhibition in vivo at 50 mg/kg (Rattus norvegicus [3]) [%] | inhibition in vivo at 10 mg/kg (Rattus norvegicus [4]) [%] | inhibition in vivo at 2 mg/kg (Rattus norvegicus [5]) [%] | inhibition in vivo at 0.5 mg/kg (Rattus norvegicus [6]) [%] |
| --- | --- | --- | --- | --- | --- | --- | --- |
| COc1ccc(CC(=O)O)cc1-c1ccc(Cl)cc1 | 26.7 | 673 | 19 | 49 | – | – | – |
| COc1cccc(CC(=O)O)c1-c1ccc(Cl)cc1 | > 50 | 566 | – | 0 | – | – | – |
| COc1cccc(-c2ccc(Cl)cc2)c1CC(=O)O | > 50 | 476 | – | 0 | – | – | – |
| COc1ccc(CC(=O)O)c(-c2ccc(Cl)cc2)c1 | > 50 | 566 | – | 0 | – | – | – |
| COc1ccc(-c2ccc(Cl)cc2)cc1CC(=O)O | > 50 | 566 | – | 0 | – | – | – |
| COc1c(CC(=O)O)cccc1-c1ccc(Cl)cc1 | > 50 | 283 | – | 16 | – | – | – |
| COc1cc(CC(=O)O)cc(-c2ccc(Cl)cc2)c1 | 16.1 | 570 | 65 | 53 | 39 | – | – |
| COc1cc(-c2ccc(Cl)cc2)ccc1CC(=O)O | > 50 | 400 | – | 27 | – | – | – |
| COc1ccc(-c2ccc(Cl)cc2)c(CC(=O)O)c1 | > 50 | 566 | – | 13 | – | – | – |
| COc1cc(CC(=O)O)ccc1-c1ccc(Cl)cc1 | 35.1 | 238 | 27 | 38 | – | – | – |
| COc1ccc2c(c1)c(CC(=O)O)c(C)n2C(=O)c1ccc(Cl)cc1 [INDOMETHACIN] | – | – | – | 45 | – | 25 | 19 |

— ChEMBL document CHEMBL1121852, “Nonsteroidal antiinflammatory agents. 3. Synthesis of the positional isomers of 4'-chloro-5-methoxy-3-biphenylylacetic acid and their antiinflammatory and analgesic activities” (J Med Chem, 1981)
